One data set relates to HeLa. Nature of the data set: Binding affinity to Photinus pyralis luciferase mRNA harboring the UGA premature stop codon expressed in human HeLa cells assessed as suppression of nonsense mutations by read-through of premature stop codon at 12 uM measured after 24 hrs by luminescence analysis. Type of data set: cell-based.
For data set [1], the system named is IB3-1. Nature of the data set: Binding affinity to CFTR mRNA UGA mutant in human IB3-1 cells carrying W1282X mutation in CFTR gene assessed as increase in CFTR expression measured after 24 to 72 hrs by Western blot analysis. Format: cell-based.
Data set [2] in a line: Cytotoxicity against human HeLa cells assessed as reduction in cell viability at 12 uM measured after 24 to 72 hrs. Type of data set: toxicity, cell-based.
Data set [3] in a line: Cytotoxicity against human HeLa cells assessed as reduction in cell viability at 300 ug/ml measured after 24 to 72 hrs. Type of data set: toxicity, cell-based.
Data set [4] deals with IB3-1. The experiment in a line: Binding affinity to CFTR mRNA UGA mutant in human IB3-1 cells carrying W1282X mutation in CFTR gene assessed as suppression of nonsense mutations by read-through of UGA premature stop codon measured as induction of CFTR re-expression after 24 hrs by DAPI/Alexa-488/WGA-Alexa594 staining-based immunofluorescence analysis. Format: cell-based.

Data set [5] deals with IB3-1. Nature of the data set: Binding affinity to CFTR mRNA UGA mutant in human IB3-1 cells carrying W1282X mutation in CFTR gene assessed as suppression of nonsense mutations by read-through of UGA premature stop codon measured as localization of CFTR in cell membrane after 24 hrs by DAPI/Alexa-488/WGA-Alexa594 staining-based immunofluorescence analysis. Type of data set: cell membranes.

Active and inactive are the calls of the source. The calls are words filed in the database; no cut-off is given here.

As to `O=C(O)c1cccc(-c2noc(-c3ccccc3F)n2)c1` [ATALUREN], the outcome in the data set with HeLa and in the data set with IB3-1 [1] was Active. Besides, in data set [2], the Activity result is “Non-Toxic”.

As to `N#Cc1cccc(-c2nc(-c3ccccn3)no2)c1`, in data set [2], the Activity result is on record as “Non-Toxic”.

As for `CN[C@@H]1[C@@H](O)[C@@H](O[C@H]2[C@H](O)[C@@H](O[C@H]3O[C@H](C(C)O)[C@@H](O)[C@H](O)[C@H]3N)[C@H](N)C[C@@H]2N)OC[C@]1(C)O` (some centres undefined), the Activity result in data set [3] is “Toxic”.

In the case of `Cc1cccc(-c2noc(-c3ccccc3C)n2)c1`, the Activity result in data set [2] is “Non-Toxic”.

Consider `Cc1cccc(-c2nc(-c3cccnc3)no2)c1`, for which the Activity entry in data set [2] is “Non-Toxic”.

For `Cc1cccc(-c2nc(-c3ccncc3)no2)c1`, the Activity result in data set [2] is given as “Non-Toxic”.

With `Cc1cccc(-c2nc(-c3ccccc3)no2)c1`, in data set [2], the Activity result is listed as “Non-Toxic”.

For `Cc1cccc(-c2nc(-c3ccccn3)no2)c1`, the result in the data set with HeLa, with IB3-1 [4], in the data set on IB3-1 [5] and in the data set on IB3-1 [1] was Active. In addition, the Activity entry in data set [2] is given as “Non-Toxic”.

Values taken from ChEMBL document CHEMBL3867424, “Exploring the readthrough of nonsense mutations by non-acidic Ataluren analogues selected by ligand-based virtual screening” (Eur J Med Chem, 2016).
